From patent US10391070B2, “Compositions and methods for treating neurological diseases or injury” (MUSC FOUNDATION FOR RESEARCH DEVELOPMENT, priority 2012, dated 2019) come the findings set out here.

Series [1] concerns maximal electroshock-induced seizures. Briefly: Maximal electroshock test. Format: in vivo, mouse. The settings on record: mice; for animals protected/animals tested, 0.25 hr / animals protected/animals tested, 0.5 hr / animals protected/animals tested, 1.0 hr / animals protected/animals tested, 2.0 hr / animals protected/animals tested, 4.0 hr: 100 mg/kg i.p., maximal electroshock. The method, then: (§1) Mouse studies were performed by NIH Anticonvulsant Screening Program at the National Institute of Neurological Disorders and Stroke (Stables and Kupferberg, 1997) according to the established NIH experimental procedures outlined below. Compounds were delivered into mice by i.p. injection at a dose of 100 mg/kg in sterile 5% DMSO, 95% Neobee (Josey et al., 2013). One of four methods for seizure induction was subsequently administered to mice at 0.25, 0.5, 1, 2 and 4 h after treatment with compound. (1) Subcutaneous PTZ seizure threshold test. PTZ was administered at a concentration of 85 mg/kg, into the loose fold of skin in the midline of the neck. […] (2) Maximal electroshock test. 60 Hz of 50 mA alternating current was delivered for 0.2 s by corneal electrodes. Mice were considered protected from seizures when the hindlimb tonic extensor was absent (White et al., 1995). (3) Minimal clonic seizure (6 Hz) test. 6 Hz of 32 mA or 44 mA alternating current was delivered for 3 s by corneal electrodes to elicit a psychomotor seizure. Mice were considered protected from seizures when the automatistic behaviors were absent (Barton et al., 2001). (4) Corneal kindled mouse model. Mice were kindled electrically with a 3 s stimulation, 8 mA, 60 Hz, and corneal electrodes to a criterion of 10 consecutive Stage 5 seizures (facial clonus and head nodding progressing to forelimb clonus, and finally rearing and falling accompanied by a generalized clonic seizure as described by Racine, 1972). Animals generally reach Stage 5 after twice daily stimulation for 8 days. With continued stimulation once a day, animals usually progressed to a reproducible Stage 5 after 10-14 additional days. At least 72 hours after the mice were kindled, the test substance was administered i.p. and each animal was given the electrical stimulus indicated above. […] Treated animals not displaying a Stage 4 or 5 seizure were considered protected.
The data for each treatment is represented as the number of animals protected/number of animals tested.
The maximal electroshock-induced seizures (MES) test is a model for generalized tonic-clonic seizures and provides an indication of a compound's ability to prevent seizure spread when all neuronal circuits in the brain are maximally active. These seizures are highly reproducible and are electrophysiologically consistent with human seizures. An animal is considered “protected” from MES-induced seizures based on abolition of the hindlimb tonic extensor component of the seizure.

For series [2], the system named is minimal clonic seizures (6 Hz). Kind of series: Minimal clonic seizure (6 Hz) test. The series is classed as in vivo, mouse. The settings on record: mice; for animals protected/animals tested, 0.25 h / animals protected/animals tested, 0.5 h / animals protected/animals tested, 1.0 h / animals protected/animals tested, 2.0 h / animals protected/animals tested, 4.0 h: 6 Hz. How it is done: as §1
6 Hz of 32 mA or 44 mA alternating current was delivered for 3 s by corneal electrodes to elicit a psychomotor seizure. Mice were considered protected from seizures when the automatistic behaviors were absent (Barton et al., 2001). Pre-administration of test compounds (100 mg/kg) to mice via i.p. injection protects against minimal clonic seizures (6 Hz). The data for each treatment is represented as the number of animals protected/number of animals tested.
The minimal clonic seizure (6 Hz) test is generally used to assess a agent's efficacy against electrically-induced seizures but uses a lower frequency (6 Hz) and longer duration of stimulation (3s) shock. Test compounds are pre-administered to mice via i.p. injection. Individual mice are challenged with sufficient current delivered through corneal electrodes to elicit a psychomotor seizure in 97% of animals (32 mA for 3s). Untreated mice will display seizures characterized by a minimal clonic phase followed by stereotyped, automatistic behaviors described originally as being similar to the aura of human patients with partial seizures. Animals not displaying this behavior are considered protected. Animals may also be evaluated using stimulation of 22 or 44 mA.

A further series concerns zebrafish larvae. Briefly: Zebrafish larval toxicity (NOEC, lethal dose). The conditions noted are these: for Lethal dose / Highest concentration tested for anti-seizure activity: 7 dpf zebrafish larvae; for Lethal dose: up to 5 h treatment; for Highest concentration tested for anti-seizure activity: highest sub-lethal dose. The series is classed as in vivo.

Molecules are shown by their SMILES.

`C#CCNC1=CC(=O)c2ccccc2C1=O` [Compound 2h, 2-(prop-2-yn-1-ylamino)naphthalene-1,4-dione]: in series [1], the “anticonvulsant activity in maximal electroshock test” value is given as “limited anticonvulsant activity”; the “animals protected/animals tested, 0.25 hr” value is 0/4; the “animals protected/animals tested, 0.5 hr” value is listed as 0/4; the “animals protected/animals tested, 1.0 hr” value was 0/4. In addition, in series [1], the “animals protected/animals tested, 2.0 hr” value is 1/4 and the “animals protected/animals tested, 4.0 hr” value is reported as 1/4. Further, in series [2] (100 mg/kg i.p., 32 mA), the “animals protected/animals tested, 0.25 h” value is given as 4/4; the “animals protected/animals tested, 0.5 h” value is recorded as 2/4; the “animals protected/animals tested, 1.0 h” value is on record as 1/4; the “animals protected/animals tested, 2.0 h” value is 1/4. Further, the “animals protected/animals tested, 4.0 h” value in series [2] (100 mg/kg i.p., 32 mA) is listed as 0/4. In addition, the “protection against 6 Hz seizures” value in series [2] (100 mg/kg i.p., 32 mA, 0.25 h) was determined as 100%. Moreover, the “anticonvulsant activity in minimal clonic (6 Hz) test” value (shortened to “anticonvulsant activity … (6 Hz) test”) in series [2] (32 mA) was “good anticonvulsant activity”. In addition, the “protection in 6 Hz model at 44 mA” value in series [2] (44 mA) is “did not result in any protection”. In the series on zebrafish larvae, the Lethal dose was over 0.02 mM and the “Highest concentration tested for anti-seizure activity” value (shortened to “Highest concentration tested”) stood at 0.02 mM.
Turning to `O=C1C=C(NCc2ccccc2)C(=O)c2ccccc21` [Compound 2j, 2-(benzylamino)naphthalene-1,4-dione], in series [1], the “anticonvulsant activity in maximal electroshock test” value was “limited anticonvulsant activity”; the “animals protected/animals tested, 0.25 hr” value is 0/4; the “animals protected/animals tested, 0.5 hr” value is given as 0/4; the “animals protected/animals tested, 1.0 hr” value is given as 0/4. In addition, in series [1], the “animals protected/animals tested, 2.0 hr” value was 2/4 and the “animals protected/animals tested, 4.0 hr” value is 0/4. Moreover, in series [2] (100 mg/kg i.p., 32 mA), the “animals protected/animals tested, 0.25 h” value is recorded as 0/4; the “animals protected/animals tested, 0.5 h” value is listed as 0/4; the “animals protected/animals tested, 1.0 h” value is recorded as 1/4; the “animals protected/animals tested, 2.0 h” value is 1/4. Further, in series [2] (100 mg/kg i.p., 32 mA), the “animals protected/animals tested, 4.0 h” value was 1/4. Moreover, in series [2] (32 mA), the “anticonvulsant activity … (6 Hz) test” value is “good anticonvulsant activity”. Moreover, in the series on zebrafish larvae, the Lethal dose came out at 0.012 mM and the “Highest concentration tested” value was 0.010 mM.
For `O=C1C=C(NCc2cccc(Cl)c2)C(=O)c2ccccc21` [Compound 2q, 2-((3-chlorobenzyl)amino)naphthalene-1,4-dione], in series [1], the “animals protected/animals tested, 0.25 hr” value is on record as 0/4; the “animals protected/animals tested, 0.5 hr” value is recorded as 0/4; the “animals protected/animals tested, 1.0 hr” value is given as 0/4; the “animals protected/animals tested, 2.0 hr” value was 0/4. Besides, the “animals protected/animals tested, 4.0 hr” value in series [1] was 0/4. Besides, in series [2] (100 mg/kg i.p., 32 mA), the “animals protected/animals tested, 0.25 h” value is recorded as 1/4; the “animals protected/animals tested, 0.5 h” value is recorded as 0/4; the “animals protected/animals tested, 1.0 h” value was 1/4; the “animals protected/animals tested, 2.0 h” value is given as 0/4. For the same molecule, the “animals protected/animals tested, 4.0 h” value in series [2] (100 mg/kg i.p., 32 mA) is on record as 0/4. The “anticonvulsant activity … (6 Hz) test” value in series [2] (32 mA) is reported as “good anticonvulsant activity”. Besides, in the series on zebrafish larvae, the Lethal dose is on record as over 0.02 mM and the “Highest concentration tested” value amounted to 0.02 mM.
In the case of `CC1=CC(=O)c2ccccc2C1=O` [VK3, menadione, reference compound], in the series on zebrafish larvae, the Lethal dose is listed as 0.007 mM and the “Highest concentration tested” value turned out to be 0.006 mM. The “highest NOEC” value with zebrafish larvae (zebrafish larvae) is 10 µM.
